# Reference: PMC3616060, “Full Inhibition of Spinal FAAH Leads to TRPV1-Mediated Analgesic Effects in Neuropathic Rats and Possible Lipoxygenase-Mediated Remodeling of Anandamide Metabolism” (PLoS ONE, 2013)
# Legend:
# [1] = target: T1, transient receptor potential vanilloid-1 (TRPV1) (Rattus norvegicus, UniProt O35433); assay: intracellular Ca2+ (Fluo-4) assay in HEK-293 cells expressing rat TRPV1; much lower effect, if any, in wild-type cells or after I-RTX; assay type: cell-based
# T1 construct: rat recombinant TRPV1 stably expressed in HEK-293 cells
# T1 sequence (O35433 whole entry): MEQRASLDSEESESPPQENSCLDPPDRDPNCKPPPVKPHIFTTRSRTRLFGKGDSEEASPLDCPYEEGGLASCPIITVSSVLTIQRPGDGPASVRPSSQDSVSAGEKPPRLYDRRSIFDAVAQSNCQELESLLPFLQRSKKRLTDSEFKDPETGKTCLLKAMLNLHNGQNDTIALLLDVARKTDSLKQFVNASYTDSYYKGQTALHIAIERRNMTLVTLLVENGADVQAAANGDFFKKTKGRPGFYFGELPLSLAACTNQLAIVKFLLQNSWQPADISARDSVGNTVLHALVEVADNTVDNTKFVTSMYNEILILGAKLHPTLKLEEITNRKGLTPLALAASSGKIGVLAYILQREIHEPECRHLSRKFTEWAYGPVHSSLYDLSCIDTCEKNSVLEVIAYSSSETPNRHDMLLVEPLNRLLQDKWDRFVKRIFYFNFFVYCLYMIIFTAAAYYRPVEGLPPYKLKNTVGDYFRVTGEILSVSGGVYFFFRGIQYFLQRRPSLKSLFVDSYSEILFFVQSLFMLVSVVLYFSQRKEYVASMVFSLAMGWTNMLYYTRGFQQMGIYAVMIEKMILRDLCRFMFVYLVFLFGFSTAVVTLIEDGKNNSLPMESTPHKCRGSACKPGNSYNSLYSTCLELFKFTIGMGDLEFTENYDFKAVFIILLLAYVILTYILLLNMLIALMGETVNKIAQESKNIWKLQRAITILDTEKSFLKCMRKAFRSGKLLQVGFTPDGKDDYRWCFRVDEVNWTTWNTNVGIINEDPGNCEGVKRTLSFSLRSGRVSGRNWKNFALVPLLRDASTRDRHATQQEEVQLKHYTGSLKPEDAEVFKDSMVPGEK
# [2] = target: T1, transient receptor potential vanilloid-1 (TRPV1); assay: intracellular Ca2+ (Fluo-4) assay in HEK-293 cells expressing rat TRPV1; assay type: cell-based
Compound,EC50 [1],EC50 [2]
"CCCCC[C@H](O)/C=C/C=C\C/C=C\C/C=C\CCCC(=O)NCCO [15S-HAEA, 15(S)-hydroxy-AEA]",11.3 ± 0.9 µM,–
"CCCCC/C=C\C/C=C\C/C=C\C/C=C\CCCC(=O)NCCO [AEA, anandamide]",–,0.24 ± 0.03 µM
